Counter-ions that a name gives are not always drawn. Like-named read-outs stand apart in the source and are kept apart here.
Key:
[1] = system: BALB/c 3T3 (CCL-163) cells
[2] = 250 mg every six hours over a twenty-four hour period; cited from earlier work
[3] = based on steady-state pharmacokinetics; cited from earlier work
[4] = single dose of two 100 mg minocycline HCl tablets, adult humans; cited from earlier work

SMILES | MPE [1] | PIF 1 [1] | PIF 2 [1] | further results
CN(C)CC(=O)Nc1ccc2c(c1O)C(=O)C1=C(O)C3(O)C(=O)C(C(N)=O)=C(O)CC3CC1C2 (stereo not shown) [COL 309, 9-dimethylaminoacetamido-6-demethyl-6-deoxy-4-dedimethylaminotetracycline] | 0.170 | 5.17 | 12.87 | –
O=C(NCN1CCCCC1)C1=C(O)CC2CC3Cc4cccc(O)c4C(=O)C3=C(O)C2(O)C1=O (stereo not shown) [COL 313, 2-CONHCH2-piperidin-1-yl-6-demethyl-6-deoxy-4-dedimethylaminotetracycline] | 0.462 | 80.27 | 58.22 | –
C[N+](C)(C)c1ccc(O)c2c1CC1CC3CC(O)=C(C(N)=O)C(=O)C3(O)C(O)=C1C2=O (stereo not shown) [COL 1001, 7-trimethylammonium-4-dedimethylaminosancycline] | 0.025 | – | – | –
NC(=O)C1=C(O)CC2CC3Cc4c([N+](=O)[O-])ccc(O)c4C(=O)C3=C(O)C2(O)C1=O (stereo not shown) [COL 302, 7-nitro-6-demethyl-6-deoxy-4-dedimethylaminotetracycline] | 0.378 | 23.16 | 23.32 | –
Cc1c2c(c(O)c3c(O)cccc13)C(=O)C1C(=O)C(C(N)=O)=C(O)CC1C2 (stereo not drawn) [COL 9, 4-de(dimethylamino)-12α-deoxyanhydrotetracycline] | 0.546 | – | – | –
CC1c2ccc(NC(=O)CN(C)C)c(O)c2C(=O)C2=C(O)C3(O)C(=O)C(C(N)=O)=C(O)CC3C(O)C21 (stereo not shown) [COL 802, 9-dimethylaminoacetamido-4-dedimethylaminodoxycycline] | −0.123 | 1.0 | – | –
NC(=O)C1=C(O)CC2CC3Cc4c(N)ccc(O)c4C(=O)C3=C(O)C2(O)C1=O (stereo not shown) [COL 307, 7-amino-6-demethyl-6-deoxy-4-dedimethylaminotetracycline] | 0.056 | 1.17 | – | –
CN(C)[C@@H]1C(O)=C(C(N)=O)C(=O)[C@@]2(O)C(O)=C3C(=O)c4c(O)cccc4[C@@](C)(O)[C@H]3C[C@@H]12 [tetracycline HCl] | – | – | – | peak plasma concentration [2]: approximately 3 μg/ml
CC1c2cccc(O)c2C(=O)C2=C(O)C3(O)C(=O)C(C(N)=O)=C(O)CC3C(O)C21 (stereo not shown) [COL 8, 4-dedimethylaminodoxycycline] | 0.703 | 165 | 82.61 | –
CC(=O)Nc1ccc2c(c1O)C(=O)C1=C(O)C3(O)C(=O)C(C(N)=O)=C(O)CC3C(O)C1C2C (stereo not shown) [COL 801, 9-acetamido-4-dedimethylaminodoxycycline] | −0.001 | 1.0 | – | –
CC1(O)c2cccc(O)c2C(=O)C2=C(O)C3(O)C(=O)C(C(N)=O)=C(O)CC3CC21 (stereo not shown) [COL 1, 4-dedimethylaminotetracycline] | 0.460 | – | – | –
CN(C)C1C(=O)C(C#N)=C(O)C2(O)C(=O)C3=C(O)c4c(O)cccc4C(C)(O)C3CC12 (stereo not shown) [COL 2, tetracyclinonitrile] | 0.005 | – | – | –
NC(=O)C1=C(O)C[C@@H]2C[C@@H]3Cc4cccc(O)c4C(=O)C3=C(O)[C@]2(O)C1=O [COL 3, 6-demethyl-6-deoxy-4-dedimethylaminotetracycline] | 0.654 | 647 | 84.72 | –
O=C(NCN1CCCC1)C1=C(O)CC2CC3Cc4cccc(O)c4C(=O)C3=C(O)C2(O)C1=O (stereo not shown) [COL 312, 2-CONHCH2-pyrrolidin-1-yl-6-demethyl-6-deoxy-4-dedimethylaminotetracycline] | 0.442 | 62.67 | 75.11 | –
CC1c2cccc(O)c2C(=O)C2=C(O)C3(O)C(=O)C(C(=O)NCN4CCCC4)=C(O)CC3C(O)C21 (stereo not shown) [COL 807, 2-CONHCH2-pyrrolidin-1-yl-4-dedimethylaminodoxycycline] | 0.382 | 40.4 | – | –
CC1(O)c2c(Cl)ccc(O)c2C(=O)C2=C(O)C3(O)C(=O)C(C(N)=O)=C(O)CC3CC21 (stereo not shown) [COL 4, 7-chloro-4-dedimethylaminotetracycline] | 0.570 | – | – | –
CC1(O)c2cccc(O)c2C(=O)C2=C(O)C3C(=O)C(C(N)=O)=C(O)CC3CC21 (stereo not drawn) [COL 7, 4-dedimethylamino-12α-deoxytetracycline] | 0.531 | – | – | –
NC(=O)C1=C(O)CC2CC3Cc4ccc([N+](=O)[O-])c(O)c4C(=O)C3=C(O)C2(O)C1=O (stereo not shown) [COL 303, 9-nitro-6-demethyl-6-deoxy-4-dedimethylaminotetracycline] | 0.309 | 5.27 | 13.82 | –

SMILES | MPE [1] | PIF 1 [1] | PIF 2 [1] | further results
O=C(NCN1CCNCC1)C1=C(O)CC2CC3Cc4cccc(O)c4C(=O)C3=C(O)C2(O)C1=O (stereo not shown) [COL 315, 2-CONHCH2-piperazin-1-yl-6-demethyl-6-deoxy-4-dedimethylaminotetracycline] | 0.276 | 15.8 | 35.30 | –
CN(C)[C@@H]1C(O)=C(C(N)=O)C(=O)[C@@]2(O)C(O)=C3C(=O)c4c(O)cccc4[C@@](C)(O)[C@H]3C[C@@H]12 [Tetracycline, reference compound] | – | – | – | plasma antibiotic threshold level [3]: 0.5 µg/mL; MPE ([1]; mouse): 0.340; PIF 1 ([1]; mouse): 5.38
CC1c2cccc(O)c2C(=O)C2=C(O)C3(O)C(=O)C(C(=O)NCN4CCNCC4)=C(O)CC3C(O)C21 (stereo not shown) [COL 809, 2-CONHCH2-piperazin-1-yl-4-dedimethylaminodoxycycline] | 0.420 | – | – | –
CN(C)CCCN1c2ccccc2Sc2ccc(Cl)cc21 [Chlorpromazine, reference compound] | – | – | – | MPE ([1]; mouse): 0.639; PIF 2 ([1]; mouse): 40.38
CCCCCCCCCCCCCCCC(=O)Nc1ccc2c(c1O)C(=O)C1=C(O)C3(O)C(=O)C(C(N)=O)=C(O)CC3C(O)C1C2C (stereo not shown) [COL 803, 9-palmitamide-4-dedimethylaminodoxycycline] | 0.047 | – | – | –
CC1c2cccc(O)c2C(=O)C2=C(O)C3(O)C(=O)C(C(=O)NCN4CCCCC4)=C(O)CC3C(O)C21 (stereo not shown) [COL 808, 2-CONHCH2-piperidin-1-yl-4-dedimethylaminodoxycycline] | 0.387 | 46.45 | – | –
CN(C)c1ccc(O)c2c1CC1CC3CC(O)=C(C(N)=O)C(=O)C3(O)C(O)=C1C2=O (stereo not shown) [COL 10, 4-dedimethylaminominocycline] | 0.099 | 1.82 | 2.04 | mean PIF2 [1]: 2.04
NC(=O)C1=C(O)CC2CC3Cc4ccc(N)c(O)c4C(=O)C3=C(O)C2(O)C1=O (stereo not shown) [COL 308, 9-amino-6-demethyl-6-deoxy-4-dedimethylaminotetracycline] | 0.015 | 1.0 | – | –
C[C@H]1c2cccc(O)c2C(=O)C2=C(O)[C@]3(O)C(=O)C(C(N)=O)=C(O)[C@@H](N(C)C)[C@@H]3[C@@H](O)[C@@H]21 [Doxycycline, 6α-deoxy-5-hydroxytetracycline, reference compound] | – | – | – | MPE ([1]; mouse): 0.522; PIF 1 ([1]; mouse): 23.37; PIF 2 ([1]; mouse): 26.71
CC1c2ccc([N+](=O)[O-])c(O)c2C(=O)C2=C(O)C3(O)C(=O)C(C(N)=O)=C(O)CC3C(O)C21 (stereo not shown) [COL 804, 9-nitro-4-dedimethylaminodoxycycline] | 0.003 | 1.0 | – | –
CN(C)c1ccc(O)c2c1C[C@H]1C[C@H]3[C@H](N(C)C)C(O)=C(C(N)=O)C(=O)[C@@]3(O)C(O)=C1C2=O [minocycline HCl] | – | – | – | average minocycline serum level [4]: 2.24 µg/mL
CC1c2ccc(N)c(O)c2C(=O)C2=C(O)C3(O)C(=O)C(C(N)=O)=C(O)CC3C(O)C21 (stereo not shown) [COL 805, 9-amino-4-dedimethylaminodoxycycline] | 0.022 | 1.0 | – | –
O=C(NCN1CCOCC1)C1=C(O)CC2CC3Cc4cccc(O)c4C(=O)C3=C(O)C2(O)C1=O (stereo not shown) [COL 314, 2-CONHCH2-morpholin-1-yl-6-demetlyl-6-deoxy-4-dedimethylaminotetracycline] | 0.475 | 41.1 | 89.48 | –
CC1(O)c2cccc(O)c2C(=O)C2=C(O)C3(O)C(=O)C(C(N)=O)=C(O)C(O)C3CC21 (stereo not shown) [COL 6, 4-hydroxy-4-dedimethylaminotetracycline] | 0.155 | – | – | –
CN(C)c1cc([N+](=O)[O-])c(O)c2c1CC1CC3CC(O)=C(C(N)=O)C(=O)C3(O)C(O)=C1C2=O (stereo not shown) [COL 1002, 9-nitro-4-dedimethylaminominocycline] | 0.040 | 1.0 | 1.35 | mean PIF2 [1]: 1.35
CCCCCCCCCCCCCCCC(=O)Nc1ccc2c(c1O)C(=O)C1=C(O)C3(O)C(=O)C(C(N)=O)=C(O)CC3CC1C2 (stereo not shown) [COL 311, 9-palmitamide-6-demethyl-6-deoxy-4-dedimethylaminotetracycline] | 0.013 | 1.0 | – | –
CN(C)c1ccc2c(c1O)C(=O)C1=C(O)C3(O)C(=O)C(C(N)=O)=C(O)CC3CC1C2 (stereo not shown) [COL 306, 9-dimethylamino-6-demethyl-6-deoxy-4-dedimethylaminotetracycline] | 0.038 | 1.64 | 1.56 | –
CC(=O)Nc1ccc2c(c1O)C(=O)C1=C(O)C3(O)C(=O)C(C(N)=O)=C(O)CC3CC1C2 (stereo not shown) [COL 305, 9-acetamido-6-demethyl-6-deoxy-4-dedimethylaminotetracycline] | 0.420 | – | – | –

— US8192749B2, “Methods of simultaneously treating ocular rosacea and acne rosacea” (priority 2003, dated 2012)
